For the experiment, the target named is T1, mouse GnRH receptor (Mus musculus, UniProt Q01776).
T1 construct: expressed in transfected cells; host or cells: 293 cells
T1 sequence (Q01776 1-327): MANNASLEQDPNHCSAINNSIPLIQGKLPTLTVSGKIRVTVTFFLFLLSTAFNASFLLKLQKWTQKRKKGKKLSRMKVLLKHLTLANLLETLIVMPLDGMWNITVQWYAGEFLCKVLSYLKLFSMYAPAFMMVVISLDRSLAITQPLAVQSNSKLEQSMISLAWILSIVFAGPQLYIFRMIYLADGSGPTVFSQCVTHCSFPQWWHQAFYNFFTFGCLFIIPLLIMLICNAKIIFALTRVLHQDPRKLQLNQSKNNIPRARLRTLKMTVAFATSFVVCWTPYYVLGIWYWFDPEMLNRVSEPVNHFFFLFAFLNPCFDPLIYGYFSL
Put plainly: Radioligand binding, 125I-GnRH-A, 293 cells expressing mouse GnRH receptors. Particulars: 10 uM; read-out: % Inhib. @ 10 uM mGnRH. The method, then: All compounds were diluted in 1% DMSO (final assay concentration) in binding assay buffer. […] Reactions were terminated by rapid filtration onto 96-well Packard GF/C filters soaked in 0.1% polyethyleneimine. Filters were washed three times with PBS buffer, dried and counted on a Packard Topcount by liquid scintillation counting.
Assay conditions were identical for assessing compound activities at other species. […] IC50 values for control peptides and test compounds were calculated utilizing GraphPad Prism™ software.
The reaction mixture was vortexed and incubated for 1 min at room temperature. After one min, the mixture was vortexed and allowed to incubate for an additional minute. 2 ml of 0.5 M acetic acid/1% BSA was added to the reaction tube and the mixture was added to a C18 Sep-Pak cartridge. The cartridge was washed with subsequent washes of 5 ml H2O and 5 ml 0.5M acetic acid and then eluted with 5×1 ml of 60% CH3CN/40% 0.5M acetic acid. The eluate was diluted with 3× volume of HPLC buffer A (0.1% TFA in H2O) and loaded onto a C18 column. […] The radioactive fractions (750 ed/fraction) are collected into clean polypropylene tubes containing 100 μl of 10% BSA. Fractions were assessed for biological activity by radioligand binding.
On to `COc1cc2c(cc1OC)C(c1cccc(Br)c1)N(C(=O)c1ccc(Cc3cc4c(cc3C)C(C)(C)CCC4(C)C)o1)CC2` (stereo not shown), for which the inhibition at 10 µM is -23%. The same measure for `CCN(CC)CCCC(C)NC(=O)c1ccc(Cc2cc3c(cc2C)C(C)(C)CCC3(C)C)o1` (stereo not shown): 99%; for `Cc1cc2c(cc1Cc1ccc(C(=O)N3CCCC(C(N)=O)C3)o1)C(C)(C)CCC2(C)C` (stereo not shown): 69%; for `Cc1cc2c(cc1Cc1ccc(C(=O)N3CCC(N4CCCCC4)CC3)o1)C(C)(C)CCC2(C)C`: 92%. Next, `Cc1cc2c(cc1Cc1ccc(C(=O)N3CCC(O)(c4ccccc4)CC3)o1)C(C)(C)CCC2(C)C`: 72%; `Cc1cc2c(cc1Cc1ccc(C(=O)N3CCC(C#N)(c4ccccc4)CC3)o1)C(C)(C)CCC2(C)C`: 40%; `CCN(C(=O)c1ccc(Cc2cc3c(cc2C)C(C)(C)CCC3(C)C)o1)C1C2CCC3CC32C1c1ccccc1` (stereo not shown): 49%. With `Cc1cc2c(cc1Cc1ccc(C(=O)N3CCc4c([nH]c5ccccc45)C3)o1)C(C)(C)CCC2(C)C`, the inhibition at 10 µM was 44%.

Regarding `Cc1cc2c(cc1Cc1ccc(C(=O)N(C)Cc3cccc4ccccc34)o1)C(C)(C)CCC2(C)C`, the inhibition at 10 µM is 51%. Next, `Cc1cc2c(cc1Cc1ccc(C(=O)N3CCN(C(c4ccccc4)c4ccc(Cl)cc4)CC3)o1)C(C)(C)CCC2(C)C` (stereo not shown): 4%; `Cc1cc2c(cc1Cc1ccc(C(=O)N3CCN(C(c4ccc(F)cc4)c4ccc(F)cc4)CC3)o1)C(C)(C)CCC2(C)C`: 16%. The same measure for `Cc1cc2c(cc1Cc1ccc(C(=O)N3CCCC(C(=O)NC(c4ccccc4)c4ccccc4)C3)o1)C(C)(C)CCC2(C)C` (stereo not shown): 9%. In the case of `Cc1cc2c(cc1Cc1ccc(C(=O)N(Cc3ccccc3)Cc3ccccn3)o1)C(C)(C)CCC2(C)C`, the inhibition at 10 µM was found to be 98%. The same measure for `CCOC(=O)C1CCCCN1C(=O)c1ccc(Cc2cc3c(cc2C)C(C)(C)CCC3(C)C)o1` (stereo not shown): 94%. The same measure for `Cc1cc2c(cc1Cc1ccc(C(=O)N3CCC(O)(Cc4ccccc4)CC3)o1)C(C)(C)CCC2(C)C`: 67%; for `COC(=O)C1CN(C(=O)c2ccc(Cc3cc4c(cc3C)C(C)(C)CCC4(C)C)o2)CC(C)C1=O` (stereo not shown): 26%; for `CCOC(=O)C1CN(C(=O)c2ccc(Cc3cc4c(cc3C)C(C)(C)CCC4(C)C)o2)CCC1=O` (stereo not shown): 71%.

In the case of `Cc1cc2c(cc1Cc1ccc(C(=O)N3CCCCC3C[C@H]3CCCN3C)o1)C(C)(C)CCC2(C)C` (stereo partly shown), the inhibition at 10 µM is 28%. Take `Cc1cc2c(cc1Cc1ccc(C(=O)N3CCN(C(=O)OC(C)(C)C)CC3)o1)C(C)(C)CCC2(C)C`: the inhibition at 10 µM was determined as 90%. Regarding `Cc1cc2c(cc1Cc1ccc(C(=O)N3CCCCC3CCN3CCCCC3)o1)C(C)(C)CCC2(C)C` (stereo not shown), the inhibition at 10 µM stood at 103%. The same measure for `CCC1CCC(C)N(C(=O)c2ccc(Cc3cc4c(cc3C)C(C)(C)CCC4(C)C)o2)C1` (stereo not shown): 95%; for `Cc1cc2c(cc1Cc1ccc(C(=O)N3CCN(CCN4CCOCC4)CC3)o1)C(C)(C)CCC2(C)C`: 73%. As to `Cc1cc2c(cc1Cc1ccc(C(=O)N3CCN(CCCN(C)C)CC3)o1)C(C)(C)CCC2(C)C`, the inhibition at 10 µM came to 96%. The same measure for `C#CCN(CCC)CCN1CCN(C(=O)c2ccc(Cc3cc4c(cc3C)C(C)(C)CCC4(C)C)o2)CC1`: 101%. With `Cc1cc2c(cc1Cc1ccc(C(=O)N3CCN(CCN(C)C)CC3)o1)C(C)(C)CCC2(C)C`, the inhibition at 10 µM came to 98%. As for `Cc1cc2c(cc1Cc1ccc(C(=O)N3CCN(CC(=O)N(C)c4ccccc4)CC3)o1)C(C)(C)CCC2(C)C`, the inhibition at 10 µM came to 103%.

Consider `C=CCN1CCN(C(=O)c2ccc(Cc3cc4c(cc3C)C(C)(C)CCC4(C)C)o2)CC1`, for which the inhibition at 10 µM is 95%.

On to `Cc1cc2c(cc1Cc1ccc(C(=O)NC(C(C)C)C(C)C)o1)C(C)(C)CCC2(C)C`, for which the inhibition at 10 µM stood at 58%. The same measure for `CCCCNC(=O)c1ccc(Cc2cc3c(cc2C)C(C)(C)CCC3(C)C)o1`: 90%; for `Cc1cc2c(cc1Cc1ccc(C(=O)N(Cc3ccccc3Cl)CC(c3ccccc3)c3ccccc3)o1)C(C)(C)CCC2(C)C`: 8%. Next, `Cc1ccc(CN(CCCN2CCOCC2)C(=O)c2ccc(Cc3cc4c(cc3C)C(C)(C)CCC4(C)C)o2)cc1`: 103%; `CSc1ccc(CN(CCc2ccccn2)C(=O)c2ccc(Cc3cc4c(cc3C)C(C)(C)CCC4(C)C)o2)cc1`: 75%. Next, `CCC(COC)NC(=O)c1ccc(Cc2cc3c(cc2C)C(C)(C)CCC3(C)C)o1` (stereo not shown): 98%; `Cc1cc2c(cc1Cc1ccc(C(=O)N(Cc3ccc(O)cc3)C3CCN(Cc4ccccc4)C3)o1)C(C)(C)CCC2(C)C` (stereo not shown): 82%. Regarding `Cc1cc2c(cc1Cc1ccc(C(=O)N(CCCN3CCN(C)CC3)Cc3ccc(Cl)c(Cl)c3)o1)C(C)(C)CCC2(C)C`, the inhibition at 10 µM stood at 104%. Take `Cc1cc2c(cc1Cc1ccc(C(=O)N(CCCN3CCN(C)CC3)Cc3ccc(OCCCN(C)C)cc3)o1)C(C)(C)CCC2(C)C`: the inhibition at 10 µM worked out at 100%. The same measure for `Cc1cc2c(cc1Cc1ccc(C(=O)N(CCCO)Cc3ccc(Cl)cc3Cl)o1)C(C)(C)CCC2(C)C`: 94%. Take `CCc1ccc(CN(CCCO)C(=O)c2ccc(Cc3cc4c(cc3C)C(C)(C)CCC4(C)C)o2)cc1`: the inhibition at 10 µM is 88%.

Consider `Cc1cc2c(cc1Cc1ccc(C(=O)N(CCCO)CCC(C)CCCC(C)(C)O)o1)C(C)(C)CCC2(C)C` (stereo not shown), for which the inhibition at 10 µM turned out to be 99%. Next, `Cc1cc2c(cc1Cc1ccc(C(=O)N3Cc4ccccc4CC3CO)o1)C(C)(C)CCC2(C)C` (stereo not shown): 61%. Take `CCN(CC)CCCC(C)N(Cc1ccc(F)cc1)C(=O)c1ccc(Cc2cc3c(cc2C)C(C)(C)CCC3(C)C)o1` (stereo not shown): the inhibition at 10 µM is 102%. The same measure for `Cc1cc2c(cc1Cc1ccc(C(=O)N(CCCc3ccccc3)Cc3ccc(Oc4ccccc4)cc3)o1)C(C)(C)CCC2(C)C`: 17%; for `Cc1cc2c(cc1Cc1ccc(C(=O)NCC3CC3)o1)C(C)(C)CCC2(C)C`: 86%. Next, `Cc1ccc(C(C)NC(=O)c2ccc(Cc3cc4c(cc3C)C(C)(C)CCC4(C)C)o2)cc1` (stereo not shown): 97%; `CCCCN(CCC#N)C(=O)c1ccc(Cc2cc3c(cc2C)C(C)(C)CCC3(C)C)o1`: 87%.

In the case of `Cc1cc2c(cc1Cc1ccc(C(=O)N(C)C3CCCC3)o1)C(C)(C)CCC2(C)C`, the inhibition at 10 µM stood at 100%.

Turning to `Cc1cc2c(cc1Cc1ccc(C(=O)NC[C@@H](C)c3ccccc3)o1)C(C)(C)CCC2(C)C`, the inhibition at 10 µM amounted to 70%. Next, `Cc1cc2c(cc1Cc1ccc(C(=O)N3CCN(C4Nc5ccccc5Oc5ccc(Cl)cc54)CC3)o1)C(C)(C)CCC2(C)C` (stereo not shown): 5%; `Cc1cc2c(cc1Cc1ccc(C(=O)N(CCC#N)CC3CCCO3)o1)C(C)(C)CCC2(C)C` (stereo not shown): 95%; `CCCN(CCC#N)C(=O)c1ccc(Cc2cc3c(cc2C)C(C)(C)CCC3(C)C)o1`: 94%. Next, `Cc1cc2c(cc1Cc1ccc(C(=O)N(C)CCC(O)c3ccccc3)o1)C(C)(C)CCC2(C)C` (stereo not shown): 99%; `CCN(CCCCO)C(=O)c1ccc(Cc2cc3c(cc2C)C(C)(C)CCC3(C)C)o1`: 94%; `Cc1cc2c(cc1Cc1ccc(C(=O)N3CCCC(C)C3)o1)C(C)(C)CCC2(C)C` (stereo not shown): 97%. The same measure for `CCN(Cc1ccccc1)C(=O)c1ccc(Cc2cc3c(cc2C)C(C)(C)CCC3(C)C)o1`: 86%; for `Cc1cc2c(cc1Cc1ccc(C(=O)N(Cc3cccc(Cl)c3)Cc3cccc(Cl)c3)o1)C(C)(C)CCC2(C)C`: 17%; for `CCN(CC)CCCCNC(=O)c1ccc(Cc2cc3c(cc2C)C(C)(C)CCC3(C)C)o1`: 101%. Turning to `CCN(CC)CCCN(CCCN(CC)CC)C(=O)c1ccc(Cc2cc3c(cc2C)C(C)(C)CCC3(C)C)o1`, the inhibition at 10 µM came out at 69%.

In the case of `CCN(CC)CCCN(C)C(=O)c1ccc(Cc2cc3c(cc2C)C(C)(C)CCC3(C)C)o1`, the inhibition at 10 µM came out at 92%. As to `Cc1cc2c(cc1Cc1ccc(C(=O)N3CCN(C(C)c4ccccc4)CC3)o1)C(C)(C)CCC2(C)C` (stereo not shown), the inhibition at 10 µM amounted to 91%. Next, `Cc1cc2c(cc1Cc1ccc(C(=O)N3CCN(C(C)C)CC3)o1)C(C)(C)CCC2(C)C`: 100%. The same measure for `Cc1cc2c(cc1Cc1ccc(C(=O)N3CCN(c4ccc(OCc5ccccc5)cc4)CC3)o1)C(C)(C)CCC2(C)C`: 44%. As to `Cc1cc2c(cc1Cc1ccc(C(=O)N(CC#N)CC#N)o1)C(C)(C)CCC2(C)C`, the inhibition at 10 µM was 64%.

Take `Cc1cc2c(cc1Cc1ccc(C(=O)N(C)[C@@H](C)Cc3ccccc3)o1)C(C)(C)CCC2(C)C`: the inhibition at 10 µM came out at 59%. The same measure for `Cc1cc2c(cc1Cc1ccc(C(=O)N[C@@H](C)C(O)c3ccccc3)o1)C(C)(C)CCC2(C)C` (stereo partly shown): 63%.

These data come from patent US7101878B1 (Agouron Pharmaceuticals, Inc., priority 1998, dated 2006).
